Experiments:
[1] = test system: isolated rat brain slices; assay: voltage sensitive dye imaging of electrically stimulated brain slices; assay type: cell-based
Method: The compounds described in the above examples display activity in in vitro and in vivo assays that track brain electrical activity. A first assay is conducted using voltage sensitive dye imaging. This is done on isolated rat brain slices kept viable in artificial cerebral spinal fluid (ACSF). Electrically stimulating the slice activates the neural assemblies therein. A voltage sensitive dye, such as, di-4-ANEPPS, is incubated with a brain slice for 1 hour in a suitable solution that enhances the dye penetration into the tissue. The dye reacts to changes in voltage across the cell membrane of the neurons in the brain slice. The example compounds are added to the ACSF at known concentration between 50 and 200 nM. The brain slices are then subjected to an electrical stimulus that activates the neurons in the slice. As the dye reacts to the change in voltage, which can be observed and quantified, the degree to which activation of the brain is dampened by the presence of the example compound is evaluated.

[2] = test system: voltage-gated sodium channels; assay: patch clamp electrophysiology on cultured cortical neurons; assay type: cell-based, rat; settings: 100 μM
Method: In another assay, the inhibition by the example compounds on the activity of voltage-gated sodium channels is determined using patch clamp electrophysiology. This analysis is done on cultured cortical neurons isolated from rats. […] This was done by assessing the suppression of the voltage gated sodium channel activity 16 ms after a test pulse.
Under control conditions, recovery occurs at a rate of about 13 ms. In the presence of 100 μM of the compound of Example 1, recovery is slowed to a rate of about 26 ms, and recovery is substantially complete after about 50 ms. […] This is a desirable property for antiseizure compounds, as little or no block of normal function occurs, while reducing (epileptic) activity that occurs at high frequency.

[3] = test system: rodent kindling model of epilepsy (partial complex seizures); assay: amygdala kindling model of epilepsy; assay type: in vivo, rat; settings: 20 mg/kg
Method: FIG. 4 is a summary of data showing the prevention, by the compound of Example 1 at a dose of 20 mg/kg, of stage 5 seizures in an animal model of partial complex seizures, using the amygdala kindling model of epilepsy. FIG. 5 is a graph showing that the pre-treatment of rats (20 mg/kg) undergoing the amygdala kindling procedure prevents the development of stage 5 seizures. […] This model produces partial complex seizures that are similar to temporal lobe seizures experienced by humans. […] Therefore, compounds according to the present invention, including preferably the compound of Example 1, may be used in prophylactic treatment or prevention of epileptogenesis.

[4] = detection in rat blood after oral or intravenous administration of Example 1; assay type: in vivo; settings: for detection in blood: rats dosed with Example 1 orally or by vein injection, over 24 hours
Method: FIG. 7 is a graph showing the detection of the compounds of Example 1 and Example 2 in rat blood after oral or intravenous administration of the compound of Example 1.
FIG. 8 is a graph showing the time it takes for the compound of Example 1 to be converted in vivo to the compound of Example 2.
All rats were dosed with the compound of Example 1 either orally or by vein injection.

[5] = test system: rodent model of traumatic brain injury/stress; assay: rodent model of traumatic brain injury/stress; assay type: in vivo, rat
Source text: FIG. 6 is an electrographic record of activity from the amygdala of a rat which has undergone traumatic brain injury and has been stressed (tail pinch). […] After moderate traumatic brain injury under control conditions, stress induces epileptiform activity in the amygdala. This activity is shown on the left in FIG. 6, where a stressor induces increased activity. […] On the right in FIG. 6, it is evident that the compound of Example 1 prevents the induction of this response and is particularly effective in reducing high frequency activity (i.e. >250 Hz) that is considered to be epileptogenic. This electrophysiological response in the control traumatic brain injury rats was accompanied by stage 2 to 3 seizures (Racine scale: av. 2.0±0.5 n=6 rats). These behavioral responses were blocked in the traumatic brain injury rats treated with the compound of Example 1.

[6] = stability in human plasma; assay type: in vitro ADME; settings: human plasma dosed with Example 1
Source text: FIG. 9 is a graph showing the stability of the compound of Example 2 in human plasma once converted from the compound of Example 1.

SMILES	effect on amplitude and duration of the response [1]	suppression of activation of the brain slice activity ([1]; 50 nM) [%]	suppression of activation of the brain slice activity ([1]; 200 nM) [%]	reduction of activity ([1]; 60 pulses/second) [%]	activity at low stimulation frequency ([1]; stimulation frequency of 20 pulses/second)	recovery from inactivation [2] [%]	time after which recovery is substantially complete [2]	rate of recovery of sodium channel inactivation ([2]; control about 13 ms)	stage 5 seizures ([3]; oral administration)	development of epileptic seizures ([3]; prior prophylactic dosing)	time course of conversion of Example 1 to Example 2 ([4]; rats dosed with 20 mg/kg of Example 1)	detection in blood [4]	induction of seizure (epileptiform) activity in the amygdala by stress ([5]; after moderate traumatic brain injury, tail pinch)	behavioral responses (stage 2 to 3 seizures, Racine scale) ([5]; traumatic brain injury rats)	stability in human plasma [6]
COC(=O)c1ccc(C2=CC(=O)CC(C)(C)C2)cc1 [Example 1, Methyl 3′,3′-dimethyl-5′-oxo-2′,3′,4′,5′-tetrahydro-[1,1′-biphenyl]-4-carboxylate]	reduced both amplitude and duration of the response	29±5	48±5	48	little or no activity	100	about 50 ms	about 26 ms	prevents stage 5 seizures from occurring	prevents the onset of seizures	substantially complete within one hour	only detectable as the free acid	prevents the induction of seizure activity	blocked	–
CC1(C)CC(=O)C=C(c2ccc(C(=O)O)cc2)C1 [Example 2, 3′,3′-Dimethyl-5′-oxo-2′,3′,4′,5′-tetrahydro-[1,1′-biphenyl]-4-carboxylic acid]	–	–	–	–	–	–	–	–	–	–	–	the only molecule detected in significant quantities	–	–	stable and is not further converted to another molecule

From patent publication US11952338B2, “Anticonvulsant compounds” (OWEN-BARRY PHARMACEUTICALS INC., priority 2017, dated 2024)
